Measured values: article PMC10452266, “Divergent Pharmacology and Biased Signaling of the Four Melanocortin-4 Receptor Isoforms in Rainbow Trout (Oncorhynchus mykiss)” (Biomolecules, 2023)

Target: T1, hMC4R (Homo sapiens, UniProt P32245)
T1 construct: expressed in transfected cells; host or cells: HEK293T
Test: Ligand-binding assay (displacement of 125I-NDP-MSH), hMC4R
Description: Cells were plated into 24-well or 6-well plates pre-coated with 0.1% gelatin and transfected with plasmids by the calcium phosphate precipitation method.
A binding assay was conducted as described previously.
Binding assays were used to investigate the binding properties of omMc4rs. […] Data are expressed as % of hMC4R binding ± range from duplicate measurements within one experiment. The curves are representative of at least three independent experiments.

T1 sequence (P32245 whole entry): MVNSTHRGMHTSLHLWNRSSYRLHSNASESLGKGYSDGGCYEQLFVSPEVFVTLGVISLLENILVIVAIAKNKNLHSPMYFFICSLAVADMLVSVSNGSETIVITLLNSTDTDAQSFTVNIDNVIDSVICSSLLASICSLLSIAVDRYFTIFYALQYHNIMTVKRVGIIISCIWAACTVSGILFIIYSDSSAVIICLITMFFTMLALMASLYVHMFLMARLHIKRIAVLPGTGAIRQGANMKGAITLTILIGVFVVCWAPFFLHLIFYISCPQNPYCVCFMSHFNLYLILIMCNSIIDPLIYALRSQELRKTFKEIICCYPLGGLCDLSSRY

## CSCC[C@@H]1NC(=O)[C@H](C)NC(=O)[C@H]([C@@H](C)O)NC(=O)CNC(=O)[C@H](CC(C)C)NC(=O)[C@H](CCCCN)NC(=O)[C@H](CCCNC(=N)N)NC(=O)[C@@H]2CSSC[C@@H]3NC(=O)[C@@H]4CCCN4C(=O)[C@H](C(C)C)NC(=O)[C@H](CCC(N)=O)NC(=O)[C@H](CCC(N)=O)NC(=O)CNC(=O)[C@H](CC(C)C)NC(=O)[C@@H]4CSSC[C@H](NC(=O)[C@H]([C@@H](C)O)NC(=O)[C@H](C)NC(=O)[C@H](CSSC[C@@H](C(=O)N[C@@H](CO)C(=O)N[C@@H](CCCNC(=N)N)C(=O)N[C@H](C(=O)O)[C@@H](C)O)NC(=O)[C@@H]5CCCN5C(=O)[C@H](CC(N)=O)NC1=O)NC(=O)[C@@H]1CCCN1C(=O)[C@H](CC(=O)O)NC(=O)[C@H](CSSC[C@H](NC(=O)[C@H](CCCNC(=N)N)NC(=O)[C@H](CCCNC(=N)N)NC(=O)[C@H](CO)NC(=O)[C@@H](N)CO)C(=O)N[C@@H](C(C)C)C(=O)N[C@@H](CCCNC(=N)N)C(=O)N[C@@H](CC(C)C)C(=O)N[C@@H](Cc1c[nH]cn1)C(=O)N[C@@H](CCC(=O)O)C(=O)N[C@@H](CO)C(=O)N4)NC3=O)C(=O)N[C@@H](Cc1ccc(O)cc1)C(=O)N[C@H]1CSSC[C@H](NC(=O)[C@H](Cc3ccccc3)NC(=O)[C@H](C)NC(=O)[C@H](CC(N)=O)NC(=O)[C@H](Cc3ccccc3)NC(=O)[C@H](Cc3ccccc3)NC(=O)[C@H](CCCNC(=N)N)NC1=O)C(=O)N[C@@H](Cc1ccc(O)cc1)C(=O)N2 [AgRP]
  IC50: 0.0325 ± 0.00776 µM
